Data reported in patent publication US20100267561A1, “HERBICIDAL PYRIDAZINONE DERIVATIVES” (priority 2007, published 2010).

What was measured:
Type in all cases: in vivo
[1] = tested on: barnyardgrass (Echinochloa crus-galli); experiment: Test A pre-/postemergence plant response
Method in brief: (§1)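 Both pre- and postemergence treatment given concurrently; postemergence seedlings measured 2–10 cm at the one- to two-leaf stage. Visual injury, 0–100 scale versus untreated, at ~10 days.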

corn (Zea mays) = experiment: Test A pre-/postemergence plant response
Method in brief: as §1

[2] = tested on: giant foxtail (Setaria faberi); experiment: Test A pre-/postemergence plant response
Method in brief: as §1

[3] = tested on: large crabgrass (Digitaria sanguinalis); experiment: Test A pre-/postemergence plant response
Method in brief: as §1

[4] = tested on: morningglory (Ipomoea coccinea); experiment: Test A pre-/postemergence plant response
Method in brief: as §1

[5] = tested on: pigweed (Amaranthus retroflexus); experiment: Test A pre-/postemergence plant response
Method in brief: as §1

[6] = tested on: velvetleaf (Abutilon theophrasti); experiment: Test A pre-/postemergence plant response
Method in brief: as §1

[7] = tested on: wheat (Triticum aestivum); experiment: Test A pre-/postemergence plant response
Method in brief: as §1

[8] = tested on: green foxtail (Setaria viridis); experiment: Test B pre-/postemergence plant response; conditions: for Foxtail, Green plant response rating: 8 g ai/ha
Description: (§2) Seeds of plant species selected from blackgrass (Alopecurus myosuroides), downy bromegrass (Bromus tectorum), green foxtail (Setaria viridis), Italian ryegrass (Lolium multiflorum), wheat (Triticum aestivum), wild oat (Avena fatua), catchweed bedstraw (Galium aparine), bermudagrass (Cynodon dactylon), surinam grass (Brachiaria decumbens), cocklebur (Xanthium strumarium), corn (Zea mays), large crabgrass (Digitaria sanguinalis), woolly cupgrass (Eriochloa villosa), giant foxtail (Setaria faberii), goosegrass (Eleusine indica), johnsongrass (Sorghum halepense), kochia (Kochia scoparia), lambsquarters (Chenopodium album), morningglory (Ipomoea coccinea), eastern black (E.B.) nightshade (Solanum ptycanthum), yellow nutsedge (Cyperus esculentus), pigweed (Amaranthus retroflexus), common ragweed (Ambrosia elation), Russian thistle (Salsola iberica), soybean (Glycine max), common (oilseed) sunflower (Helianthus annuus), and velvetleaf (Abutilon theophrasti) were planted and treated preemergence with test chemicals formulated in a non-phytotoxic solvent mixture which included a surfactant.
(§3) At the same time, plants selected from these crop and weed species and also winter barley (Hordeum vulgare), canarygrass (Phalaris minor), chickweed (Stellaria media) and windgrass (Apera spica-venti) were treated with postemergence applications of some of the test chemicals formulated in the same manner. Plants ranged in height from 2 to 18 cm (1- to 4-leaf stage) for postemergence treatments.
(§4) Plant species in the flooded paddy test consisted of rice (Oryza sativa), umbrella sedge (Cyperus difformis), ducksalad (Heteranthera limosa) and barnyardgrass (Echinochloa crus-galli) grown to the 2-leaf stage for testing. At time of treatment, test pots were flooded to 3 cm above the soil surface, treated by application of test compounds directly to the paddy water, and then maintained at that water depth for the duration of the test. Treated plants and controls were maintained in a greenhouse for 13 to 15 days, after which time all species were compared to controls and visually evaluated. Plant response ratings, summarized in Table B, are based on a scale of 0 to 100 where 0 is no effect and 100 is complete control. A dash (-) response means no test result.

[9] = tested on: johnsongrass (Sorghum halepense); experiment: Test B pre-/postemergence plant response; conditions: for Johnsongrass plant response rating: 8 g ai/ha
Description: as §2, §3, §4

[10] = tested on: wheat (Triticum aestivum); experiment: Test B pre-/postemergence plant response; conditions: for Wheat plant response rating: 8 g ai/ha
Description: as §2, §3, §4

[11] = Postemergence, 31 g ai/ha, 0 to 100 scale (0 no effect, 100 complete control)
[12] = Postemergence, 125 g ai/ha, 0 to 100 scale, 0 no effect, 100 complete control
[13] = Preemergence, 31 g ai/ha, 0 to 100 scale, 0 is no effect, 100 is complete control
[14] = Preemergence, 125 g ai/ha, 0 to 100 scale (0 no effect, 100 complete control)
[15] = Postemergence, 16 g ai/ha, scale 0 to 100
[16] = Postemergence, 31 g ai/ha, scale 0 to 100, 0 no effect, 100 complete control
[17] = Postemergence, 62 g ai/ha, scale 0 to 100, 0 no effect, 100 complete control
[18] = Preemergence, 16 g ai/ha, scale 0 to 100 (0 no effect, 100 complete control)
[19] = Preemergence, 31 g ai/ha, 0 to 100 scale, 0 no effect, 100 complete control
[20] = Preemergence, 62 g ai/ha, scale 0 to 100

## Cc1cc(-c2ccc(Cl)cc2)nn1-c1c(OC(=O)C(C)C)cnn(C)c1=O [Compound 34]
[1]; [11]
  Plant response rating, Barnyardgrass: 90
[1]; [12]
  Plant response rating, Barnyardgrass: 100
[1]; [13]
  Plant response rating, Barnyardgrass: 70
[1]; [14]
  Plant response rating, Barnyardgrass: 100
Corn (Zea mays); [11]
  Plant response rating, Corn: 70
Corn (Zea mays); [12]
  Plant response rating, Corn: 90
Corn (Zea mays); [13]
  Plant response rating, Corn: 20
Corn (Zea mays); [14]
  Plant response rating, Corn: 60
[2]; [11]
  Plant response rating, Foxtail, Giant: 90
[2]; [12]
  Plant response rating, Foxtail, Giant: 100
[2]; [13]
  Plant response rating, Foxtail, Giant: 100
[2]; [14]
  Plant response rating, Foxtail, Giant: 100
[3]; [11]
  Plant response rating, Crabgrass, Large: 70
[3]; [12]
  Plant response rating, Crabgrass, Large: 100
[3]; [13]
  Plant response rating, Crabgrass, Large: 80
[3]; [14]
  Plant response rating, Crabgrass, Large: 90
[4]; [11]
  Plant response rating, Morningglory: 0
[4]; [12]
  Plant response rating, Morningglory: 0
[4]; [13]
  Plant response rating, Morningglory: 0
[4]; [14]
  Plant response rating, Morningglory: 0
[5]; [11]
  Plant response rating, Pigweed: 0
[5]; [12]
  Plant response rating, Pigweed: 10
[5]; [13]
  Plant response rating, Pigweed: 0
[5]; [14]
  Plant response rating, Pigweed: 0
[6]; [11]
  Plant response rating, Velvetleaf: 0
[6]; [12]
  Plant response rating, Velvetleaf: 0
[6]; [13]
  Plant response rating, Velvetleaf: 0
[6]; [14]
  Plant response rating, Velvetleaf: 0
[7]; [11]
  Plant response rating, Wheat: 40
[7]; [12]
  Plant response rating, Wheat: 60
[7]; [13]
  Plant response rating, Wheat: 30
[7]; [14]
  Plant response rating, Wheat: 70
[8]; postemergence, 0-100 scale
  Foxtail, Green plant response rating: 60
[8]; [15]
  Plant response rating, Foxtail, Green: 90
[8]; [16]
  Plant response rating, Foxtail, Green: 100
[8]; [17]
  Plant response rating, Foxtail, Green: 100
[8]; [18]
  Plant response rating, Foxtail, Green: 100
[8]; [19]
  Plant response rating, Foxtail, Green: 100
[8]; [20]
  Plant response rating, Foxtail, Green: 100
[8]; Preemergence, scale 0 to 100
  Foxtail, Green plant response rating: 100
[9]; postemergence, 0-100 scale
  Johnsongrass plant response rating: 75
[9]; [15]
  Plant response rating, Johnsongrass: 95
[9]; [16]
  Plant response rating, Johnsongrass: 98
[9]; [17]
  Plant response rating, Johnsongrass: 100
[9]; [18]
  Plant response rating, Johnsongrass: 95
[9]; [19]
  Plant response rating, Johnsongrass: 100
[9]; [20]
  Plant response rating, Johnsongrass: 100
[9]; Preemergence, scale 0 to 100
  Johnsongrass plant response rating: 65
[10]; postemergence, 0-100 scale
  Wheat plant response rating: 0
[10]; [15]
  Plant response rating, Wheat: 40
[10]; [17]
  Plant response rating, Wheat: 90
[10]; [18]
  Plant response rating, Wheat: 0
[10]; [19]
  Plant response rating, Wheat: 30
[10]; [20]
  Plant response rating, Wheat: 40
[10]; Preemergence, scale 0 to 100
  Wheat plant response rating: 0

## Cc1cc(-c2ccc(Cl)cc2)nn1-c1c(OS(C)(=O)=O)cnn(C)c1=O [Compound 36]
[1]; [11]
  Plant response rating, Barnyardgrass: 80
[1]; [12]
  Plant response rating, Barnyardgrass: 100
[1]; [13]
  Plant response rating, Barnyardgrass: 90
[1]; [14]
  Plant response rating, Barnyardgrass: 100
Corn (Zea mays); [11]
  Plant response rating, Corn: 50
Corn (Zea mays); [12]
  Plant response rating, Corn: 80
Corn (Zea mays); [13]
  Plant response rating, Corn: 50
Corn (Zea mays); [14]
  Plant response rating, Corn: 80
[2]; [11]
  Plant response rating, Foxtail, Giant: 90
[2]; [12]
  Plant response rating, Foxtail, Giant: 90
[2]; [13]
  Plant response rating, Foxtail, Giant: 100
[2]; [14]
  Plant response rating, Foxtail, Giant: 100
[3]; [11]
  Plant response rating, Crabgrass, Large: 80
[3]; [12]
  Plant response rating, Crabgrass, Large: 90
[3]; [13]
  Plant response rating, Crabgrass, Large: 70
[3]; [14]
  Plant response rating, Crabgrass, Large: 100
[4]; [12]
  Plant response rating, Morningglory: 0
[4]; [13]
  Plant response rating, Morningglory: 0
[4]; [14]
  Plant response rating, Morningglory: 0
[5]; [11]
  Plant response rating, Pigweed: 0
[5]; [12]
  Plant response rating, Pigweed: 10
[5]; [13]
  Plant response rating, Pigweed: 0
[5]; [14]
  Plant response rating, Pigweed: 30
[6]; [11]
  Plant response rating, Velvetleaf: 0
[6]; [12]
  Plant response rating, Velvetleaf: 0
[6]; [13]
  Plant response rating, Velvetleaf: 0
[6]; [14]
  Plant response rating, Velvetleaf: 0
[7]; [11]
  Plant response rating, Wheat: 0
[7]; [12]
  Plant response rating, Wheat: 60
[7]; [13]
  Plant response rating, Wheat: 50
[7]; [14]
  Plant response rating, Wheat: 90
[8]; postemergence, 0-100 scale
  Foxtail, Green plant response rating: 0
[8]; [15]
  Plant response rating, Foxtail, Green: 50
[8]; [16]
  Plant response rating, Foxtail, Green: 60
[8]; [17]
  Plant response rating, Foxtail, Green: 70
[8]; [18]
  Plant response rating, Foxtail, Green: 100
[8]; [19]
  Plant response rating, Foxtail, Green: 100
[8]; [20]
  Plant response rating, Foxtail, Green: 100
[8]; Preemergence, scale 0 to 100
  Foxtail, Green plant response rating: 50
[9]; postemergence, 0-100 scale
  Johnsongrass plant response rating: 0
[9]; [15]
  Plant response rating, Johnsongrass: 50
[9]; [16]
  Plant response rating, Johnsongrass: 95
[9]; [17]
  Plant response rating, Johnsongrass: 100
[9]; [19]
  Plant response rating, Johnsongrass: 40
[9]; [20]
  Plant response rating, Johnsongrass: 100
[9]; Preemergence, scale 0 to 100
  Johnsongrass plant response rating: 0
[10]; postemergence, 0-100 scale
  Wheat plant response rating: 0
[10]; [15]
  Plant response rating, Wheat: 5
[10]; [17]
  Plant response rating, Wheat: 85
[10]; [18]
  Plant response rating, Wheat: 0
[10]; [19]
  Plant response rating, Wheat: 5
[10]; [20]
  Plant response rating, Wheat: 60
[10]; Preemergence, scale 0 to 100
  Wheat plant response rating: 0
